Each structure is given as a SMILES string.

Among the data in a compilation of properties of binary mixtures (doi:10.1021/acs.jpcc.9b02625) are electrical conductivity and viscosity values, retold here.

The nature of this data set: xn = mol fraction of the nth substance listed. To be noted: 303.15 K, 101 kPa.

`O=S(=O)([N-]S(=O)(=O)C(F)(F)F)C(F)(F)F.[Li+]` + O=S1(=O)CCCC1: the electrical conductivity by setting is: (x1 = 0.1) 0.274 S/m; (x1 = 0.111) 0.262 S/m; (x1 = 0.2) 0.166 S/m; (x1 = 0.25) 0.104 S/m; (x1 = 0.333) 0.042 S/m. In addition, the viscosity by setting is: (x1 = 0.1) 28 mPa·s; (x1 = 0.111) 31 mPa·s; (x1 = 0.2) 90.3 mPa·s; (x1 = 0.25) 175 mPa·s; (x1 = 0.333) 627 mPa·s.

As a reminder, the viscosity is the internal friction of a fluid under shear. A low value points to easy flow.
